ChEMBL document CHEMBL1201862, “PubChem BioAssay data set” (2004)
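Following 48 hours of exposure in 96-well plates, responses at five concentrations were used to interpolate endpoints linearly. At the GI50, growth is halved.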 The source made the active and inactive calls. No stated cut-off is given here; in the data, active = GI50 up to about 1.1 µM and inactive = higher.

How the values were obtained:
Test in all cases: NCI tumour cell line growth inhibition, 48 h
786-0 = tested on: 786-0
A549 = tested on: A549
NCI-H226 = tested on: NCI-H226
UO-31 = tested on: UO-31
SK-MEL-2 = tested on: SK-MEL-2
HOP-92 = tested on: HOP-92
CAKI-1 = tested on: CAKI-1
CCRF-CEM = tested on: CCRF-CEM
SNB-78 = tested on: SNB-78
Malme-3M = tested on: Malme-3M
RXF 631 = tested on: RXF 631
SNB-19 = tested on: SNB-19
SN12C = tested on: SN12C
DLD-1 = tested on: DLD-1
NCI-H460 = tested on: NCI-H460
ACHN = tested on: ACHN
HT-29 = tested on: HT-29
EKVX = tested on: EKVX
SK-MEL-28 = tested on: SK-MEL-28
HCT-15 = tested on: HCT-15
DMS-114 = tested on: DMS-114
SNB-75 = tested on: SNB-75
NCI-H522 = tested on: NCI-H522
OVCAR-8 = tested on: OVCAR-8
M14 = tested on: M14
XF498 = tested on: XF498
HOP-62 = tested on: HOP-62
OVCAR-3 = tested on: OVCAR-3
KM12 = tested on: KM12
DMS-273 = tested on: DMS-273
SF-539 = tested on: SF-539
SK-OV-3 = tested on: SK-OV-3
SF-268 = tested on: SF-268
SR = tested on: SR
SK-MEL-5 = tested on: SK-MEL-5
A498 = tested on: A498
IGROV-1 = tested on: IGROV-1
SW-620 = tested on: SW-620
U-251 = tested on: U-251
M19-MEL = tested on: M19-MEL
COLO 205 = tested on: COLO 205
NCI-H23 = tested on: NCI-H23
UACC-62 = tested on: UACC-62
MOLT-4 = tested on: MOLT-4
HCT-116 = tested on: HCT-116
LXFL 529 = tested on: LXFL 529
K562 = tested on: K562
RPMI-8226 = tested on: RPMI-8226
OVCAR-5 = tested on: OVCAR-5
TK-10 = tested on: TK-10
KM-20L2 = tested on: KM-20L2
HL-60 = tested on: HL-60
UACC-257 = tested on: UACC-257
OVCAR-4 = tested on: OVCAR-4
RXF 393 = tested on: RXF 393
HOP-18 = tested on: HOP-18
SF-295 = tested on: SF-295
HCC 2998 = tested on: HCC 2998
LOX IMVI = tested on: LOX IMVI

COc1ccc(/C(=N\NC(=O)C(=O)NN)C(c2ccc(OC)cc2)C2(O)C(=O)Nc3ccccc32)cc1 (configuration not stated)
GI50 (786-0): 28.1 µM (inactive) | GI50 (A549): 62.4 µM (inactive) | GI50 (NCI-H226): > 100 µM (inactive) | GI50 (UO-31): 27.6 µM (inactive) | GI50 (SK-MEL-2): 69.7 µM (inactive) | GI50 (HOP-92): 97.1 µM (inactive) | GI50 (CAKI-1): > 100 µM (inactive) | GI50 (CCRF-CEM): > 10 µM (inactive) | GI50 (SNB-78): > 100 µM (inactive) | GI50 (Malme-3M): 42.7 µM (inactive) | GI50 (RXF 631): > 100 µM (inactive) | GI50 (SNB-19): 53.3 µM (inactive) | GI50 (SN12C): 57.8 µM (inactive) | GI50 (DLD-1): 51.4 µM (inactive) | GI50 (NCI-H460): 60.3 µM (inactive) | GI50 (ACHN): 82.2 µM (inactive) | GI50 (HT-29): 14.5 µM (inactive) | GI50 (EKVX): > 100 µM (inactive) | GI50 (SK-MEL-28): > 100 µM (inactive) | GI50 (HCT-15): 94.8 µM | GI50 (DMS-114): 64.3 µM (inactive) | GI50 (SNB-75): > 100 µM (inactive) | GI50 (NCI-H522): 28.1 µM (inactive) | GI50 (OVCAR-8): > 100 µM (inactive) | GI50 (M14): > 100 µM (inactive) | GI50 (XF498): 29.6 µM (inactive) | GI50 (HOP-62): 94.8 µM (inactive) | GI50 (OVCAR-3): > 100 µM (inactive) | GI50 (KM12): > 100 µM (inactive) | GI50 (DMS-273): > 100 µM (inactive) | GI50 (SF-539): 80.7 µM (inactive) | GI50 (SK-OV-3): > 100 µM (inactive) | GI50 (SF-268): 55.2 µM (inactive) | GI50 (SR): 46 µM (inactive) | GI50 (SK-MEL-5): 22.4 µM (inactive) | GI50 (A498): 48.8 µM (inactive) | GI50 (IGROV-1): > 100 µM (inactive) | GI50 (SW-620): > 100 µM (inactive) | GI50 (U-251): > 100 µM (inactive) | GI50 (M19-MEL): > 100 µM (inactive) | GI50 (COLO 205): > 100 µM (inactive) | GI50 (NCI-H23): 89.5 µM (inactive) | GI50 (UACC-62): 45.3 µM (inactive) | GI50 (MOLT-4): 6.44 µM (inactive) | GI50 (HCT-116): > 100 µM (inactive) | GI50 (LXFL 529): 29 µM (inactive) | GI50 (K562): 26.7 µM (inactive) | GI50 (RPMI-8226): 69.7 µM (inactive) | GI50 (OVCAR-5): > 100 µM (inactive) | GI50 (TK-10): 69 µM (inactive) | GI50 (KM-20L2): > 100 µM (inactive)

CCCC1C[C@H]2CCCCN2[C@H]2CCCN12 (some centres not stated)
GI50 (786-0): > 100 µM (inactive) | GI50 (HL-60): > 37.8 µM (inactive) | GI50 (A549): > 87.1 µM (inactive) | GI50 (NCI-H226): > 100 µM (inactive) | GI50 (UO-31): > 100 µM (inactive) | GI50 (SK-MEL-2): > 100 µM (inactive) | GI50 (HOP-92): > 100 µM (inactive) | GI50 (CAKI-1): > 100 µM (inactive) | GI50 (CCRF-CEM): > 45.9 µM (inactive) | GI50 (SNB-78): > 100 µM (inactive) | GI50 (UACC-257): > 100 µM (inactive) | GI50 (OVCAR-4): > 100 µM (inactive) | GI50 (Malme-3M): > 100 µM (inactive) | GI50 (RXF 393): > 48.2 µM (inactive) | GI50 (RXF 631): > 100 µM (inactive) | GI50 (SNB-19): > 100 µM (inactive) | GI50 (SN12C): > 100 µM (inactive) | GI50 (DLD-1): > 50.4 µM (inactive) | GI50 (NCI-H460): > 66.4 µM (inactive) | GI50 (ACHN): > 100 µM (inactive) | GI50 (HT-29): > 100 µM (inactive) | GI50 (HOP-18): > 100 µM (inactive) | GI50 (EKVX): > 100 µM (inactive) | GI50 (SK-MEL-28): > 100 µM (inactive) | GI50 (HCT-15): > 46.7 µM | GI50 (DMS-114): > 51.5 µM (inactive) | GI50 (SNB-75): > 100 µM (inactive) | GI50 (NCI-H522): > 100 µM (inactive) | GI50 (OVCAR-8): > 100 µM (inactive) | GI50 (SF-295): > 100 µM (inactive) | GI50 (M14): > 100 µM (inactive) | GI50 (XF498): > 100 µM (inactive) | GI50 (HOP-62): > 100 µM (inactive) | GI50 (OVCAR-3): > 100 µM (inactive) | GI50 (KM12): > 100 µM (inactive) | GI50 (DMS-273): > 61.9 µM (inactive) | GI50 (SF-539): > 100 µM (inactive) | GI50 (SK-OV-3): > 100 µM (inactive) | GI50 (SF-268): > 100 µM (inactive) | GI50 (SR): > 40.6 µM (inactive) | GI50 (SK-MEL-5): > 100 µM (inactive) | GI50 (A498): > 100 µM (inactive) | GI50 (IGROV-1): > 100 µM (inactive) | GI50 (SW-620): > 37.8 µM (inactive) | GI50 (U-251): > 44.4 µM (inactive) | GI50 (COLO 205): > 47.4 µM (inactive) | GI50 (HCC 2998): > 100 µM (inactive) | GI50 (NCI-H23): > 100 µM (inactive) | GI50 (UACC-62): > 100 µM (inactive) | GI50 (MOLT-4): > 100 µM (inactive) | GI50 (HCT-116): > 45.2 µM (inactive) | GI50 (LXFL 529): > 69.3 µM (inactive) | GI50 (K562): > 50.2 µM (inactive) | GI50 (RPMI-8226): > 43.4 µM (inactive) | GI50 (OVCAR-5): > 100 µM (inactive) | GI50 (LOX IMVI): > 39.4 µM (inactive) | GI50 (TK-10): > 100 µM (inactive) | GI50 (KM-20L2): > 88.3 µM (inactive)

O=C(O)CCC1CCc2cccc(O)c2C1=O (configuration not stated)
GI50 (HL-60): > 100 µM (inactive) | GI50 (HOP-92): > 100 µM (inactive) | GI50 (CCRF-CEM): > 100 µM (inactive) | GI50 (SNB-78): > 100 µM (inactive) | GI50 (OVCAR-4): > 100 µM (inactive) | GI50 (RXF 393): > 100 µM (inactive) | GI50 (RXF 631): > 100 µM (inactive) | GI50 (SNB-19): > 100 µM (inactive) | GI50 (SN12C): > 100 µM (inactive) | GI50 (NCI-H460): > 100 µM (inactive) | GI50 (ACHN): > 100 µM (inactive) | GI50 (HOP-18): > 100 µM (inactive) | GI50 (SK-MEL-28): > 100 µM (inactive) | GI50 (HCT-15): > 100 µM | GI50 (DMS-114): > 100 µM (inactive) | GI50 (M14): > 100 µM (inactive) | GI50 (XF498): > 100 µM (inactive) | GI50 (DMS-273): > 100 µM (inactive) | GI50 (SF-539): > 100 µM (inactive) | GI50 (SK-OV-3): > 100 µM (inactive) | GI50 (A498): > 100 µM (inactive) | GI50 (IGROV-1): > 100 µM (inactive) | GI50 (U-251): > 100 µM (inactive) | GI50 (M19-MEL): > 100 µM (inactive) | GI50 (COLO 205): > 100 µM (inactive) | GI50 (NCI-H23): > 100 µM (inactive) | GI50 (UACC-62): > 100 µM (inactive) | GI50 (MOLT-4): > 100 µM (inactive) | GI50 (LXFL 529): > 100 µM (inactive) | GI50 (K562): > 100 µM (inactive) | GI50 (RPMI-8226): > 100 µM (inactive) | GI50 (LOX IMVI): > 100 µM (inactive) | GI50 (KM-20L2): > 100 µM (inactive)
